Reference: patent US10278957B2, “Opioid agonist peptides and uses thereof” (Protagonist Therapeutics, Inc., priority 2017, dated 2019)
Square brackets hold non-standard residues; d marks the D form. Peptide text beside a SMILES is read from it. Dmt = Cc1cc(O)cc(C)c1C[C@H](N)C(=O)O; β3hF = N[C@H](CC(=O)O)Cc1ccccc1; Sar = CNCC(=O)O

Tests used:
μ-opioid receptor (MOR) = target: T1, μ-opioid receptor (MOR) (Homo sapiens, UniProt P35372); assay: MOR agonist cAMP assay (HitHunter cAMP, forskolin-stimulated); type: cell-based
T1 construct: host or cells: cAMP Hunter CHO-K1 OPRM1 Gαi cell line
T1 sequence (P35372 whole entry): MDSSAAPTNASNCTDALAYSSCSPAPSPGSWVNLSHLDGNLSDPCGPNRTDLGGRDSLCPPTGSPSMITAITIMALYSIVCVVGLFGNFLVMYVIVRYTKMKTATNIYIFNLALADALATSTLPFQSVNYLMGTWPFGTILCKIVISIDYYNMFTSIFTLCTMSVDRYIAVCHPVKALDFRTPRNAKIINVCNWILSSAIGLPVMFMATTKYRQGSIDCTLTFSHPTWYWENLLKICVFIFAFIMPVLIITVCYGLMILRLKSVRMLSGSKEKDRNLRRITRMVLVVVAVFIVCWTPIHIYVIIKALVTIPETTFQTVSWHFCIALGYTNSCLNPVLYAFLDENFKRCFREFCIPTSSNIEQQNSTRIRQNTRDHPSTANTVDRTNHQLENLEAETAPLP
Summary of the method: (§1)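 CHO-K1 Gαi cells expressing OPRM1 or OPRD1 were exposed 30 min at 37° C to 11-point threefold agonist dilutions, in duplicate, with 20 uM forskolin final. cAMP quantified by EFC chemiluminescent competitive immunoassay against cAMP standards. EC50 by four-parameter Hill nonlinear regression.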

δ-opioid receptor (DOR) = target: T2, δ-opioid receptor (DOR) (Homo sapiens, UniProt P41143); assay: DOR agonist cAMP assay (HitHunter cAMP, forskolin-stimulated); type: cell-based
T2 construct: host or cells: cAMP Hunter CHO-K1 OPRD1 Gαi cell line
T2 sequence (P41143 whole entry): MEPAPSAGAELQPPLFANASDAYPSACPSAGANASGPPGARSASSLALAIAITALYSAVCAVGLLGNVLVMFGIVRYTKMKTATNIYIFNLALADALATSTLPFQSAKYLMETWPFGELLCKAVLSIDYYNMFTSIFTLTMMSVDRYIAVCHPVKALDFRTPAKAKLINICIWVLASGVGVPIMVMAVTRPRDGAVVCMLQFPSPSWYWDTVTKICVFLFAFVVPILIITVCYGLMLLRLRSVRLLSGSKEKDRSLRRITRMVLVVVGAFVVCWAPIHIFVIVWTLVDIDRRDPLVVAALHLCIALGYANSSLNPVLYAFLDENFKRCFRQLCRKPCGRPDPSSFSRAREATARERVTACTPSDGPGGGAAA
Summary of the method: as §1

[1] = SGF assay (stability in simulated gastric fluid); type: in vitro ADME; conditions: pig, simulated gastric fluid (SGF) with porcine pepsin, pH 2, pepsin, 37° C.
Method: SGF was prepared by adding 20 mg NaCl, 32 mg porcine pepsin (MP Biochemicals, catalog 02102599), and 70 μl HCl to 10 ml water (final pH=2). Aliquots of SGF (0.5 ml each) were pre-warmed at 37° C. To start the reaction, 1 μl of opioid agonist peptide stock solution (10 mM in DMSO) was added to 0.5 ml SGF and thoroughly mixed such that the final peptide concentration was 20 μM. The reactions were incubated at 37° C. with gentle shaking.
At each timepoint (0, 15, 30, 60 min) 50 µl aliquots were removed and added to 200 ul of acetonitrile containing 0.1% formic acid to quench the reaction. Samples were stored at 4° C. until the end of the experiment and centrifuged at 10,000 rpm for 5 minutes. Aliquots of the supernatant were removed, diluted 1:1 into distilled water containing internal standard, and analyzed by LCMS/MS. The percent of the opioid agonist peptide remaining at each timepoint was calculated based on the peak area response ratio of the opioid agonist peptide to the internal standard. Time 0 was set to 100%, and all later timepoints were calculated relative to time 0. Half-lives were calculated by fitting to a first-order exponential decay equation using GraphPad.

[2] = SIF assay (stability in simulated intestinal fluid); type: in vitro ADME; conditions: for half-life at 20 μM: simulated intestinal fluid (SIF) with pancreatin, simulated intestinal fluid, pH 6.8, pancreatin, 37° C.
Method: SIF was prepared by adding 6.8 g of monobasic potassium phosphate and 10.0 g of pancreatin to 1.0 L of water. After dissolution, the pH was adjusted to 6.8 using NaOH. DMSO stocks (2 mM) were prepared for each of the opioid agonist peptides. Aliquots of the DMSO solutions were dosed into […], each containing 0.5 mL of SIF, which was pre-warmed to 37° C. The final opioid agonist peptide concentration was 20 μM. The vials were kept in a benchtop Thermomixer® for the duration of the experiment. At each timepoint (0, 5, 10, 20, 40, 60, or 360 minutes or 24 hours), 1.0 mL of acetonitrile containing 1% formic acid was added to one vial to terminate the reaction. Samples were stored at 4° C. until the end of the experiment. After the final timepoint was sampled, the tubes were mixed and then centrifuged at 3,000 rpm for 10 minutes. Aliquots of the supernatant were removed, diluted 1:1 into distilled water containing an internal standard, and analyzed by LCMS/MS. The percent of the opioid agonist peptide remaining at each timepoint was calculated based on the peak area response ratio of opioid agonist peptide to the internal standard. Time 0 was set to 100%, and all later timepoints were calculated relative to time 0. Half-lives were calculated by fitting to a first-order exponential decay equation using Graph pad.

| SMILES | EC50 (μ-opioid receptor (MOR)) | EC50 (δ-opioid receptor (DOR)) | half-life at 20 μM [1] | half-life at 20 μM [2] | SIF (min) ([2]; Table 4, SIF half-life) |
| --- | --- | --- | --- | --- | --- |
| Cc1cc(C(N)=O)cc(C)c1C[C@H](N)C(=O)N[C@H](C)C(=O)NCC(=O)N[C@H](CC(=O)N(C)[C@H](C(=O)O)c1ccccc1)Cc1ccccc1 [compound 99] | < 1 nM | < 1 nM | > 24 h | > 24 h | – |
| Cc1cc(O)cc(C)c1C[C@H](N)C(=O)N[C@H](C)C(=O)NCC(=O)N[C@H](CC(=O)N(C)[C@H](C(=O)O)c1ccccc1)Cc1ccccc1 [compound 157] | < 1 nM | < 1 nM | – | > 24 h | – |
| CCCC[C@@H](C(=O)O)N(C)C(=O)C[C@H](Cc1ccccc1C)NC(=O)CNC(=O)[C@@H](C)NC(=O)[C@@H](N)Cc1c(C)cc(O)cc1C [compound 140] | < 1 nM | < 1 nM | 6 to 24 h | 6 to 24 h | – |
| Cc1cc(C(N)=O)cc(C)c1C[C@H](N)C(=O)N[C@@H](C(=O)NCC(=O)N[C@H](CC(=O)N(C)CC(N)=O)Cc1ccccc1)[C@H](C)O [compound 76] | 1 to 10 nM | < 1 nM | 0.167 to 6 h | > 24 h | – |
| CCCC[C@@H](C(=O)O)N(C)C(=O)C[C@H](Cc1ccccc1)NC(=O)CNC(=O)[C@@H](C)NC(=O)[C@@H](N)Cc1c(C)cc(C(N)=O)cc1C [compound 101] | 1 to 10 nM | < 1 nM | > 24 h | > 24 h | – |
| Cc1cc(O)cc(C)c1C[C@H](N)C(=O)N[C@H](C)C(=O)NCC(=O)N[C@H](CC(=O)N(CC(N)=O)Cc1ccccc1)Cc1ccccc1 [compound 118] | < 1 nM | < 1 nM | > 24 h | > 24 h | – |
| Cc1cc(O)cc(C)c1C[C@H](N)C(=O)N[C@@H](C(=O)NCC(=O)N[C@H](CC(=O)N(C)CC(N)=O)Cc1ccccc1)[C@H](C)O [compound 82] | < 1 nM | < 1 nM | > 24 h | > 24 h | – |
| Cc1cc(O)cc(C)c1C[C@H](N)C(=O)N[C@H](C)C(=O)NCC(=O)N[C@H](CC(=O)NCC(N)=O)Cc1ccccc1 [compound 112] | – | < 1 nM | > 24 h | > 24 h | – |
| CN[C@@H](Cc1ccc(O)cc1)C(=O)N[C@H](C)C(=O)NCC(=O)N[C@H](CC(=O)N(C)CC(N)=O)Cc1ccccc1 [compound 51] | – | > 200 nM | – | 6 to 24 h | – |
| C[C@@H](NC(=O)C[C@@H](N)Cc1ccc(O)cc1)C(=O)NCC(=O)N[C@H](CC(=O)N(C)CC(N)=O)Cc1ccccc1 [compound 50] | – | > 200 nM | – | 6 to 24 h | – |
| C[C@@H](NC(=O)[C@H](N)Cc1ccc(O)cc1)C(=O)NCC(=O)N[C@H](CC(=O)N(C)CC(N)=O)Cc1ccccc1 [compound 53] | – | > 200 nM | – | 6 to 24 h | – |
| Cc1cc(C(N)=O)cc(C)c1C[C@H](N)C(=O)N[C@H](C)C(=O)NCC(=O)N[C@H](CC(=O)N(C)CC(=O)O)Cc1ccccc1 [compound 79] | < 1 nM | < 1 nM | > 24 h | > 24 h | – |
| Cc1cc(C(N)=O)cc(C)c1C[C@H](N)C(=O)N[C@H](C)C(=O)NCC(=O)N[C@H](CC(=O)N(C)CC(N)=O)Cc1ccccc1 [compound 70] | < 1 nM | < 1 nM | 0.167 to 6 h | > 24 h | – |
| C[C@@H](NC(=O)[C@@H](N)CCc1ccc(O)cc1)C(=O)NCC(=O)N[C@H](CC(=O)N(C)CC(N)=O)Cc1ccccc1 [compound 54] | – | > 200 nM | – | 6 to 24 h | – |
| CCCC[C@@H](C(=O)O)N(C)C(=O)C[C@H](Cc1ccc(F)cc1)NC(=O)CNC(=O)[C@@H](C)NC(=O)[C@@H](N)Cc1c(C)cc(C(N)=O)cc1C [compound 166] | < 1 nM | < 1 nM | > 24 h | > 24 h | – |
| C[C@@H](NC(=O)[C@@H](N)Cc1ccc(O)c(Cl)c1)C(=O)NCC(=O)N[C@H](CC(=O)N(C)CC(N)=O)Cc1ccccc1 [compound 55] | – | 10 to 50 nM | – | 6 to 24 h | – |
| Cc1cc(O)cc(C)c1C[C@H](N)C(=O)N[C@H](C)C(=O)NCCC(=O)N[C@H](CC(=O)N(C)CC(N)=O)Cc1ccccc1 [compound 73] | – | 50 to 200 nM | 0.167 to 6 h | > 24 h | – |
| C[C@@H](NC(=O)[C@@H](N)Cc1ccc(O)c(C(C)(C)C)c1)C(=O)NCC(=O)N[C@H](CC(=O)N(C)CC(N)=O)Cc1ccccc1 [compound 52] | – | > 200 nM | – | 6 to 24 h | – |
| CCCC[C@@H](C(=O)O)N(C)C(=O)C[C@H](Cc1ccccc1)NC(=O)CNC(=O)[C@@H](C)NC(=O)[C@@H](N)Cc1c(C)cc(O)cc1C [compound 159] | < 1 nM | – | > 24 h | > 24 h | – |
| C[C@@H](NC(=O)[C@@H](N)Cc1ccc(O)c(F)c1)C(=O)NCC(=O)N[C@H](CC(=O)N(C)CC(N)=O)Cc1ccccc1 [compound 57] | – | 1 to 10 nM | > 24 h | 6 to 24 h | – |
| Cc1cc(O)cc(C)c1C[C@H](N)C(=O)N[C@H](C)C(=O)NCC(=O)N[C@H](CC(=O)N(CCCOC(C)C)CC(N)=O)Cc1ccccc1 [compound 117] | – | < 1 nM | > 24 h | > 24 h | – |
| Cc1cc(O)cc(C)c1C[C@H](N)C(=O)N[C@H](C)C(=O)NCC(=O)N[C@H](CC(=O)N(C)[C@@H](CC(C)C)C(=O)O)Cc1ccccc1 [compound 155] | < 1 nM | – | > 24 h | > 24 h | – |
| Cc1cc(O)cc(C)c1C[C@H](N)C(=O)N[C@H](C)C(=O)N[C@@H](C)C(=O)N[C@H](CC(=O)N(C)CC(N)=O)Cc1ccccc1 [compound 66] (H-[Dmt][dA]A[β3hF][Sar]-NH2) | – | – | 0.167 to 6 h | > 24 h | – |
| Cc1cc(O)cc(C)c1C[C@H](N)C(=O)N[C@H](C)C(=O)NCC(=O)N[C@H](CC(=O)N(CCC(C)C)CC(N)=O)Cc1ccccc1 [compound 116] | – | < 1 nM | > 24 h | > 24 h | – |
| Cc1cc(O)cc(C)c1C[C@H](N)C(=O)N[C@H](C)C(=O)NCC(=O)N[C@H](CC(=O)N(C)CC(=O)O)Cc1ccccc1 [compound 87] | – | < 1 nM | 6 to 24 h | > 24 h | – |
| C[C@@H](NC(=O)[C@@H](N)Cc1cccc(O)c1)C(=O)NCC(=O)N[C@H](CC(=O)N(C)CC(N)=O)Cc1ccccc1 [compound 56] | – | > 200 nM | – | 6 to 24 h | – |
| Cc1cc(C(N)=O)cc(C)c1C[C@H](N)C(=O)N[C@H](C)C(=O)NCC(=O)N[C@H](CC(=O)N(C)CC(N)=O)Cc1ccccc1 [Seq. ID 70, H-Phe(2,6-dimethyl-4-CONH2)-a-G-bhF-Sar-NH2] | – | – | – | – | **** (for SIF half-life values, **** indicates >1290) |
| C[C@@H](NC(=O)[C@@H](N)Cc1ccc(O)c(O)c1)C(=O)NCC(=O)N[C@H](CC(=O)N(C)CC(N)=O)Cc1ccccc1 [compound 58] | – | – | – | 6 to 24 h | – |
